The experiment addresses MAP4K1 (HPK1) (Homo sapiens (Human), UniProt Q92918). In words: MAP4K1 (HPK1) biochemical enzymatic activity, electrophoretic mobility shift (EZReader 2), ATP at APPKM (26 μM). From the text: MAP4K1 (HPK1) and relevant off-target enzymatic activity was monitored using the Perkin Elmer electrophoretic mobility shift technology platform—the EZReader 2. […] Within the linear, steady-state phase of the kinase enzymatic reaction, the mixed pool of phosphorylated (product) and non-phosphorylated (substrate) peptides was passed through the microfluidic system of the PerkinElmer EZ Reader 2, under an applied electric potential difference. The presence of the phosphate group on the product peptide provided a difference in mass and charge between that of the substrate peptide, resulting in a separation of the substrate and product pools in the sample (Perrin et al. 2010). As the product and substrate peptide mixture passes the lasers within the instrument, these pools are detected (λex=488 nm, λent=568 nm) and resolved as separate peaks. The ratio between these peaks reflects the activity of the compound at that concentration, in that well, under those conditions.
Inhibitors were dissolved in 100% DMSO at a stock concentration of 10 mM. A 100×, 10-point, 4-fold serial dilution of each inhibitor was created in 100% DMSO either manually or on a Hamilton STAR liquid handler, starting at a relevant concentration, usually 1 mM. A volume of 0.130 μL of each concentration was transferred to the relevant wells of a 384-well plate (Greiner 781 201) in duplicate using a TTPLabtech Mosquito nano-litre dispenser. Using a Multidrop Combi, the remaining constituents of the kinase reaction were added to the 130 nL of dosed compound as follows (see table below for final reaction details):
Enzyme activity assays at the ^APPKM for ATP or 1 mM ATP: In each well of a 384-well plate, 0.1-15 nM of untreated enzyme was incubated in a total of 13 μL of buffer (100 mM HEPES pH 7.5, 0.015% Brij 35, 10 mM MgCl2, 1 mM DTT) with 1.5 μM fluorescent peptid and 20-1000 μM ATP, at 25° C., for 60-180 minutes in the presence or absence of a dosed concentration series of compound (1% DMSO final concentration). The kinase reactions were stopped by the addition of 70 μl of Stop buffer (100 mM HEPES pH 7.5, 0.015% Brij 35, 35 mM EDTA and 0.2% of Coating Reagent 3 (Caliper Lifesciences)). The plates were read on a Caliper EZReader 2 as described above.

Each structure is given as a SMILES string. pIC50: −log10 of the molar value.

Sequence of MAP4K1 (HPK1) (Q92918 whole entry): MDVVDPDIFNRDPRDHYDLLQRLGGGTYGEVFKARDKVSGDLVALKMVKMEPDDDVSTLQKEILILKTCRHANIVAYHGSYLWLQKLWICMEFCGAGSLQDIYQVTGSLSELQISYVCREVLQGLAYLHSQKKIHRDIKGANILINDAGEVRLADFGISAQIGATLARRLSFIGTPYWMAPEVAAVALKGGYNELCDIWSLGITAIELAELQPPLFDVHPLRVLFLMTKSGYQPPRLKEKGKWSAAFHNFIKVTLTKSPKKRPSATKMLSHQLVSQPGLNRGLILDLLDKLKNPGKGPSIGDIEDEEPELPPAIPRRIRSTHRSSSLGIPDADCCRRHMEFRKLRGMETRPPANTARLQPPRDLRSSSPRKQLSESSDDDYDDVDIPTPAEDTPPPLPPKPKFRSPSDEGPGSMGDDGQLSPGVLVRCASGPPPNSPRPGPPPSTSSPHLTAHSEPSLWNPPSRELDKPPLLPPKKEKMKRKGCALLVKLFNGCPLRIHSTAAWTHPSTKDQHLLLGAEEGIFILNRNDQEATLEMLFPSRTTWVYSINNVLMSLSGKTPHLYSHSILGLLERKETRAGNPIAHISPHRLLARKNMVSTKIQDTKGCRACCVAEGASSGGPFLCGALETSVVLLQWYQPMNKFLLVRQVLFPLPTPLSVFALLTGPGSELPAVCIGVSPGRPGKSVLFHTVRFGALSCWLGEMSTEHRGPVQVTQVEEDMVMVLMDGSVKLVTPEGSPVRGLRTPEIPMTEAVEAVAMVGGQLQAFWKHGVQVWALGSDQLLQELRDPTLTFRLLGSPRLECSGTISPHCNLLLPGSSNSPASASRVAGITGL

As to `C[C@@H]1OC(=O)c2ccc(Nc3cc4c([C@@](C)(N)C5CC5)cnc(O[C@H]5C[C@H](O)C5)c4cn3)nc2[C@H]1C` (relative stereo) [Compound 193, (7S,8R)-2-((5-((R)-1-Amino-1-cyclopropylethyl)-8-((trans)-3-hydroxycyclobutoxy)-2,7-naphthyridin-3-yl)amino)-7,8-dimethyl-7,8-dihydro-5H-pyrano[4,3-b]pyridin-5-one and (7S,8R)-2-((5-((S)-1-amino-1-cyclopropylethyl)-8-((trans)-3-hydroxycyclobutoxy)-2,7-naphthyridin-3-yl)amino)-7,8-dimethyl-7,8-dihydro-5H-pyrano[4,3-b]pyridin-5-one], the pIC50 reads like this: (class designation) > 9.52; (numeric value) 10.00.

In the case of `CC[C@H](F)c1nc(Nc2cc3c(C(C)(C)N)cnc(OC)c3cn2)cnc1C#N` (single isomer, unassigned) [Compound 30], the pIC50 was 8.00 to 8.96 (class designation) and 8.45 (numeric value).

Consider `CC[C@@H](F)c1nc(Nc2cc3c(C(C)(C)N)cnc(OC)c3cn2)cnc1C#N` (single isomer, unassigned) [Compound 31], for which the pIC50 is 8.00 to 8.96 (class designation) and 8.23 (numeric value).

Regarding `CC[C@](C)(N)c1cnc(OC)c2cnc(Nc3ccc4c(n3)CC(C)(C)OC4=O)cc12` (single isomer, unassigned) [Compound 62], the pIC50 by setting is: (class designation) 9.00 to 9.51; (numeric value) 9.26.

As for `C[C@](N)(c1cnc(OC2CC2)c2cnc(Nc3ccc4c(n3)CCOC4=O)cc12)C1CC1` (single isomer, unassigned) [Compound 108], the pIC50 (numeric value) was 9.01.

On to `C[C@@H]1OC(=O)c2ccc(Nc3cc4c(C(C)(N)CO)cnc(OC5CC5)c4cn3)nc2[C@H]1C` (single isomer, unassigned) [Compound 139, (7S,8R)-2-((5-((R)-2-Amino-1-hydroxypropan-2-yl)-8-cyclopropoxy-2,7-naphthyridin-3-yl)amino)-7,8-dimethyl-7,8-dihydro-5H-pyrano[4,3-b]pyridin-5-one or (7S,8R)-2-((5-((S)-2-amino-1-hydroxypropan-2-yl)-8-cyclopropoxy-2,7-naphthyridin-3-yl)amino)-7,8-dimethyl-7,8-dihydro-5H-pyrano[4,3-b]pyridin-5-one], for which the pIC50 by setting is: (class designation) 8.00 to 8.96; (numeric value) 8.65.

On to `C[C@@H]1OC(=O)c2ccc(Nc3cc4c([C@](C)(N)CO)cnc(OC5CC5)c4cn3)nc2[C@H]1C` (single isomer, unassigned) [Compound 140, (7S,8R)-2-((5-((R)-2-Amino-1-hydroxypropan-2-yl)-8-cyclopropoxy-2,7-naphthyridin-3-yl)amino)-7,8-dimethyl-7,8-dihydro-5H-pyrano[4,3-b]pyridin-5-one or (7S,8R)-2-((5-((S)-2-amino-1-hydroxypropan-2-yl)-8-cyclopropoxy-2,7-naphthyridin-3-yl)amino)-7,8-dimethyl-7,8-dihydro-5H-pyrano[4,3-b]pyridin-5-one], for which the pIC50 (class designation) is < 8.00.

As for `CC1(C)Cc2nc(Nc3cc4c([C@](C)(N)C5CC5)cnc(OC5CC5)c4cn3)ccc2C(=O)N1` (single isomer, unassigned) [Compound 148], where the note is “numeric value”, the pIC50 is 9.96.

For `CC1(C)Cc2nc(Nc3cc4c([C@@](C)(N)C5CC5)cnc(OC5CC5)c4cn3)ccc2C(=O)O1` (single isomer, unassigned) [Compound 153], the pIC50 (numeric value) was 8.58.

With `C[C@H](Oc1ncc(C(C)(C)N)c2cc(Nc3ccc4c(n3)CC(C)(C)OC4=O)ncc12)C(F)F` (single isomer, unassigned) [Compound 164], the pIC50 reads like this: (class designation) 8.00 to 8.96; (numeric value) 8.13.

As to `C[C@@H](Oc1ncc(C(C)(C)N)c2cc(Nc3ccc4c(n3)CC(C)(C)OC4=O)ncc12)C(F)F` (single isomer, unassigned) [Compound 165], the pIC50 is 8.00 to 8.96 (class designation) and 8.90 (numeric value).

Consider `CC[C@](C)(N)c1cnc(OCC(F)(F)F)c2cnc(Nc3ccc4c(n3)C(C)(C)OC4=O)cc12` (single isomer, unassigned) [Compound 173], for which the pIC50 reads like this: (class designation) 8.00 to 8.96; (numeric value) 8.76.

As to `CC[C@@](C)(N)c1cnc(OCC(F)(F)F)c2cnc(Nc3ccc4c(n3)C(C)(C)OC4=O)cc12` (single isomer, unassigned) [Compound 175], the pIC50 (class designation) is < 8.00 and the negative logarithm of the IC50 (pIC50) (numeric value) was 7.45.

For the compound `C[C@@H](Oc1ncc(C(C)(C)N)c2cc(Nc3ccc4c(n3)CC(C)(C)OC4=O)ncc12)C(F)(F)F` (single isomer, unassigned) [Compound 179], the pIC50 is, setting by setting: (class designation) 8.00 to 8.96; (numeric value) 8.67.

As for `C[C@H](Oc1ncc(C(C)(C)N)c2cc(Nc3ccc4c(n3)CC(C)(C)OC4=O)ncc12)C(F)(F)F` (single isomer, unassigned) [Compound 180], the pIC50 is, setting by setting: (class designation) < 8.00; (numeric value) 7.81.

For the compound `CC[C@@H](N)c1ccc(OC)c2cnc(Nc3ccc4c(n3)C3(CC3)C(C)(C)OC4=O)cc12` (single isomer, unassigned) [Compound 207, (S)-2′-((5-(1-Aminopropyl)-8-methoxyisoquinolin-3-yl)amino)-7′,7′-dimethyl-5′H,7′H-spiro[cyclopropane-1,8′-pyrano[4,3-b]pyridin]-5′-one or (R)-2′-((5-(1-aminopropyl)-8-methoxyisoquinolin-3-yl)amino)-7′,7′-dimethyl-5′H,7′H-spiro[cyclopropane-1,8′-pyrano[4,3-b]pyridin]-5′-one], the pIC50 (class designation) is > 9.52 and the pIC50 (numeric value) was 9.66.

On to `COc1ncc([C@H](C)N)c2cc(Nc3ccnc(C(C)(C)F)n3)ncc12` (stereo in doubt) [Compound 1, 5-(1-Aminoethyl)-N-(2-(2-fluoropropan-2-yl)pyrimidin-4-yl)-8-methoxy-2,7-naphthyridin-3-amine], for which the pIC50 is < 8.00 (class designation) and 7.67 (numeric value).

Turning to `COc1ncc(C(C)(C)N)c2cc(Nc3ccnc(OC(C)C)n3)ncc12` [Compound 4], the pIC50 reads like this: (class designation) 9.00 to 9.51; (numeric value) 9.38.

On to `CNc1ncc(C(C)(C)N)c2cc(Nc3ccnc(C(C)(C)F)n3)ncc12` [Compound 6, 4-(2-Aminopropan-2-yl)-N6-(2-(2-fluoropropan-2-yl)pyrimidin-4-yl)-N1-methyl-2,7-naphthyridine-1,6-diamine], for which the pIC50 is 8.00 to 8.96 (class designation) and 8.48 (numeric value).

Take `CNc1ncc(C(C)(C)N)c2cc(Nc3cnc(C#N)c(C(C)C)n3)ncc12` [Compound 8, 5-((5-(2-Aminopropan-2-yl)-8-(methylamino)-2,7-naphthyridin-3-yl)amino)-3-isopropylpyrazine-2-carbonitrile]: the pIC50 is < 8.00 (class designation) and 7.95 (numeric value).

On to `COc1ncc(C(C)(C)N)c2cc(Nc3cnc(C#N)c(C(C)C)n3)ncc12` [Compound 10], for which the pIC50 reads like this: (class designation) 8.00 to 8.96; (numeric value) 8.56.

Regarding `CCOc1ncc(C(C)(C)N)c2cc(Nc3ccnc(C(C)(C)F)n3)ncc12` [Compound 16], the pIC50 (class designation) is 8.00 to 8.96 and the negative logarithm of the IC50 (pIC50) (numeric value) is 8.60.

Turning to `CNC(C)(C)c1cnc(OC)c2cnc(Nc3ccnc(C(C)(C)F)n3)cc12` [Compound 17, N-(2-(2-Fluoropropan-2-yl)pyrimidin-4-yl)-8-methoxy-5-(2-(methylamino)propan-2-yl)-2,7-naphthyridin-3-amine], the pIC50 is 8.00 to 8.96 (class designation) and 8.40 (numeric value).

In the case of `CC[C@@H](C)c1nc(Nc2cc3c(C(C)(C)N)cnc(OC)c3cn2)ccc1C#N` [Compound 18], the pIC50 was 9.00 to 9.51 (class designation) and 9.40 (numeric value).

`COc1ncc(C(C)(C)N)c2cc(Nc3ccnc(N4CCC[C@@H]4C)n3)ncc12` [Compound 27]: the pIC50 (class designation) is > 9.52 and the pIC50 (numeric value) was 9.52.

Turning to `COc1ncc(C(C)(C)N)c2cc(Nc3cnc(C#N)c(C(C)(C)F)n3)ncc12` [Compound 29], the pIC50 was 8.00 to 8.96 (class designation) and 8.40 (numeric value).

Regarding `COc1ncc(C(C)(C)N)c2cc(Nc3cnc4c(n3)CC(C)(C)OC4=O)ncc12` [Compound 47], the pIC50 reads like this: (class designation) < 8.00; (numeric value) 7.87.

As to `COc1ncc(C(C)(C)N)c2cc(Nc3cnc(C#N)c(N4CCC[C@@H]4C)n3)ncc12` [Compound 49], the pIC50 by setting is: (class designation) 9.00 to 9.51; (numeric value) 9.00.

`COc1ncc(C2CCCN2)c2cc(Nc3ccc4c(n3)CC(C)(C)OC4=O)ncc12` (centres unmarked) [Compound 50, 2-((8-Methoxy-5-(pyrrolidin-2-yl)-2,7-naphthyridin-3-yl)amino)-7,7-dimethyl-7,8-dihydro-5H-pyrano[4,3-b]pyridin-5-one]: the pIC50 reads like this: (class designation) < 8.00; (numeric value) 7.28.

In the case of `COc1ncc(C(C)(C)N)c2cc(Nc3ccc4c(n3)[C@H]3CCC[C@H]3OC4=O)ncc12` [Compound 51], the pIC50 is > 9.52 (class designation) and 9.59 (numeric value).

The record behind these values is patent US11534441B2, “MAP4K1 inhibitors” (Blueprint Medicines Corporation, priority 2020, dated 2022).
